Data taken from patent publication US10144713B1, “Bis-cyclic guanidines as antibacterial agents” (UNIVERSITY OF SOUTH FLORIDA, priority 2017, dated 2018).
Where two headings read alike, the source gives them in different places.

How the values were obtained:
Format in all cases: cell-based
[1] = system: vancomycin-resistant Enterococcus faecalis (ATCC 700802); assay: MIC against VRE; settings: Gram +; 16 h, 37° C.
Procedure: (§1) Minimum Inhibitory Concentrations (MICs) Against Bacteria.
(§2) The antimicrobial activity of the compounds was tested on the following six bacteria strains: K. pneumoniae (ATCC 13383), P. aeruginosa (ATCC27853), E. coli (ATCC 25922), vancomycin-resistant Enterococcus faecalis(ATCC 700802), Methicillin-resistant S. aureus (MRSA, ATCC 33591), Methicillin-resistant S. epidermidis (MRSE, RP62A). The procedures were followed as reported previously (Hancock et al., Immunobiology 2006, 211, 315-322). Briefly, a single colony of each bacterium was inoculated in 3 mL TSB medium and incubated overnight at 37° C. Then the bacteria culture was diluted at 1:100 and the bacteria were allowed to grow to mid-logarithmic phase. Next, 50 μL of 2-fold serial dilutions of compounds (0.1-25 μg/mL) were added the 96-well plate containing aliquots of 50 μL of bacteria suspension (1×10^6 CFU/mL) in each well. The mixture was incubated at 37° C. for 16 h, and their absorption at 600 nm wavelength was read on a Biotek Synergy HT microtiter plate reader. […] The experiments were repeated at least three times with duplicates each time. HC50 means the concentration causing 50% hemolysis.

E. coli (ATCC 25922) = assay: MIC against E. coli; settings: Gram −, 16 h, 37° C.; for MIC: Escherichia coli, ATCC25922
Procedure: as §1, §2

[2] = system: K. pneumoniae (ATCC 13383); assay: MIC against K. pneumoniae; settings: Gram −, 16 h, 37° C.; for MIC: Klebsiella pneumoniae, ATCC13383
Procedure: as §1, §2

[3] = system: Methicillin-resistant S. aureus (MRSA, ATCC 33591); assay: MIC against MRSA; settings: Gram +, 16 h, 37° C.; for MIC: Staphylococcus aureus
Procedure: as §1, §2

[4] = system: P. aeruginosa (ATCC27853); assay: MIC against P. aeruginosa; settings: for MIC: Pseudomonas aeruginosa, ATCC27853
Procedure: as §1, §2

[5] = system: Methicillin-resistant S. epidermidis (MRSE, RP62A); assay: MIC against MRSE; settings: Gram +, 16 h, 37° C.; for MIC: Staphylococcus epidermidis, MRSE
Procedure: as §1, §2

[6] = system: human red blood cells (hRBCs); assay: Hemolytic assay; settings: for Hemolysis (HC50): concentration causing 50% hemolysis, hRBCs, 37° C., 1 h
Procedure: The freshly drawn, K2EDTA treated human red blood cells (hRBCs) were washed with 1×PBS buffer, and centrifuged at 3500 rpm for 10 min. The step was repeated until the supernatant became clear. The supernatant was removed, and the RBCs were diluted into 5% v/v suspension. 50 μL of the suspension was incubated with 50 μL of compounds of different concentrations at 37° C. for 1 h. The mixture was centrifuged at 3500 rpm for 10 min. Subsequently, to 30 μL of the supernatant 100 μL PBS was added, and the absorbance of the mixture at 540 nm was read on a Biotek Synergy HT plate reader. The positive control was 2% Triton X-100, and the negative control was 1×PBS alone. The hemolysis activity was calculated by the formula % hemolysis=(Abssample−AbsPBS)/(AbsTriton−AbsPBS)×100%. The experiment was repeated at least three times with duplicates each time.

[7] = system: six bacteria strains (K. pneumoniae, P. aeruginosa, E. coli, VRE, MRSA, MRSE); assay: Antimicrobial activity on the panel of six bacteria strains
Procedure: as §1, §2

[8] = read-out: MIC against Gram-positive bacteria
[9] = read-out: MIC for Gram-negative bacteria (except for P. aeruginosa)

MIC [1] [µg/mL] | MIC (E. coli (ATCC 25922)) [µg/mL] | MIC [2] [µg/mL] | MIC [3] [µg/mL] | MIC ([4]; Gram −, 16 h, 37° C.) [µg/mL] | MIC [5] [µg/mL] | Molecule | Hemolysis (HC50) [6] [µg/mL] | other results
– | – | – | – | – | – | Colistin [reference compound] | – | MIC VRE [1]: >50 µg/mL; MIC E. coli (E. coli (ATCC 25922)): 0.5 µg/mL; MIC K. pneumoniae [2]: 0.5 µg/mL; MIC MRSA [3]: >50 µg/mL; MIC P. aeruginosa ([4]; Gram −, 16 h, 37° C.): 1.0 µg/mL; MIC MRSE [5]: >50 µg/mL
1.5 | 1.5 | 3 to 6 | 0.325 | > 25 | 0.75 | CCCCCCN1C(=N)N(CC(=O)NCCCCCCNC(=O)CN2C[C@H](Cc3ccccc3)N(CCCCCC)C2=N)C[C@@H]1Cc1ccccc1 [Compound 14] | >250 | activity against P. aeruginosa (in words) [4]: reduced activity
0.75 | 12 | 1.5 to 3 | 0.75 | > 25 | 0.33 | N=C1N(CC(=O)Nc2ccc(NC(=O)CN3C[C@H](Cc4ccccc4)N(CCCC4CCCCC4)C3=N)cc2)C[C@H](Cc2ccccc2)N1CCCC1CCCCC1 [Compound 19] | 5 | –
1.5 | 12 | 1.5 to 3 | 0.325 | > 25 | 0.33 | N=C1N(CC(=O)Nc2cccc(NC(=O)CN3C[C@H](Cc4ccccc4)N(CCCC4CCCCC4)C3=N)c2)C[C@H](Cc2ccccc2)N1CCCC1CCCCC1 [Compound 20] | 26 | –
0.75 | 1.5 to 3 | 1.5 to 3 | 0.33 | 12 to 25 | 0.75 | N=C1N(CC(=O)Nc2ccc(NC(=O)CN3C[C@H](Cc4ccccc4)N(CCCc4ccccc4)C3=N)cc2)C[C@H](Cc2ccccc2)N1CCCc1ccccc1 [Compound 5] | 140 | MIC [7, 8]: < 3 µg/mL; MIC [7, 9]: < 3 µg/mL
0.325 | 0.75 to 1.5 | 1.5 to 3 | 0.75 | > 25 | 1.5 | CCCCCCN1C(=N)N(CC(=O)NCCCCCCCCNC(=O)CN2C[C@H](Cc3ccccc3)N(CCCCCC)C2=N)C[C@@H]1Cc1ccccc1 [Compound 15] | >250 | activity against P. aeruginosa (in words) [4]: reduced activity
> 25 | 3 | > 25 | 6 to 12 | > 25 | > 25 | CCN1C(=N)N(CC(=O)Nc2cccc(NC(=O)CN3C[C@H](Cc4ccccc4)N(CC)C3=N)c2)C[C@@H]1Cc1ccccc1 [Compound 4] | – | MIC E. coli (E. coli (ATCC 25922)): 3.0 µg/mL; MIC MRSA [3]: 6~12 μg/mL
– | > 25 | – | > 25 | – | – | N=C1N(CC(=O)Nc2ccc(-c3ccc(NC(=O)CN4C[C@H](Cc5ccccc5)N(CCCc5ccccc5)C4=N)cc3)cc2)C[C@H](Cc2ccccc2)N1CCCc1ccccc1 [Compound 10] | – | antibacterial activity against the tested bacteria (in words) [7]: not active
0.75 | 1.5 to 3 | 0.75 | 1.5 | 6 to 12 | 1.5 | CCCCCCN1C(=N)N(CC(=O)Nc2cccc(NC(=O)CN3C[C@H](CC(C)C)N(CCCCCC)C3=N)c2)C[C@@H]1CC(C)C [Compound 23] | 200 | –
– | > 25 | – | 6 | – | – | N=C1N(CC(=O)Nc2ccc(NC(=O)CN3C[C@H](Cc4ccccc4)N(CCC45CC6CC(CC(C6)C4)C5)C3=N)cc2)C[C@H](Cc2ccccc2)N1CCC12CC3CC(CC(C3)C1)C2 [Compound 21] | – | –
– | > 25 | – | 12 to 25 | – | – | N#CNc1cccc(NC(=O)CN2C[C@H](Cc3ccccc3)N(CCCc3ccccc3)C2=N)c1 [Compound 7] | – | antibacterial activity against the tested bacteria (in words) [7]: negligible activity
1.5 to 3 | 3 to 6 | 3 to 6 | 0.75 | > 25 | 0.75 to 1.5 | N=C1N(CC(=O)NCCCCCCNC(=O)CN2C[C@H](Cc3ccccc3)N(CCCc3ccccc3)C2=N)C[C@H](Cc2ccccc2)N1CCCc1ccccc1 [Compound 9] | 100 | HC50 ([6]; text b247, unit as printed): 100 µg/mL; activity against P. aeruginosa (in words) [4]: not active
– | > 25 | – | 12 to 25 | – | – | N=C1N(CC(=O)Nc2cccc(NC(N)=O)c2)C[C@H](Cc2ccccc2)N1CCCc1ccccc1 [Compound 8] | – | antibacterial activity against the tested bacteria (in words) [7]: negligible activity
– | > 25 | – | 1.5 | – | – | CCCCCCCCN1C(=N)N(CC(=O)Nc2ccc(NC(=O)CN3C[C@H](Cc4ccccc4)N(CCCCCCCC)C3=N)cc2)C[C@@H]1Cc1ccccc1 [Compound 17] | – | antibacterial activity against the tested bacteria (in words) [7]: decreased activity
1.5 | 3 to 6 | 3 | 1.5 to 3 | 12 to 25 | 1.5 | N=C1N(CC(=O)Nc2cccc(NC(=O)CN3C[C@H](Cc4ccccc4)N(CCCc4ccccc4)C3=N)c2)C[C@H](Cc2ccccc2)N1CCCc1ccccc1 [Compound 6] | >250 | MIC [7, 8]: < 3 µg/mL; MIC [7, 9]: < 3 µg/mL
3 to 6 | 1.5 | 6 to 12 | 0.75 | > 25 | 1.5 | CCCCCCN1C(=N)N(CC(=O)NCCCCNC(=O)CN2C[C@H](Cc3ccccc3)N(CCCCCC)C2=N)C[C@@H]1Cc1ccccc1 [Compound 13] | >250 | activity against P. aeruginosa (in words) [4]: reduced activity
> 25 | 1.5 | > 25 | 6 to 12 | > 25 | > 25 | CCN1C(=N)N(CC(=O)Nc2ccc(NC(=O)CN3C[C@H](Cc4ccccc4)N(CC)C3=N)cc2)C[C@@H]1Cc1ccccc1 [Compound 3] | – | MIC MRSA [3]: 6~12 μg/mL
1 | > 50 | > 50 | 0.5 | > 50 | 0.5 | CCCCCCCCCC(=O)N[C@@H](Cc1c[nH]c2ccccc12)C(=O)N[C@H](CC(N)=O)C(=O)N[C@@H](CC(=O)O)C(=O)N[C@@H]1C(=O)NCC(=O)N[C@@H](CCCN)C(=O)N[C@@H](CC(=O)O)C(=O)N[C@H](C)C(=O)N[C@@H](CC(=O)O)C(=O)NCC(=O)N[C@H](CO)C(=O)N[C@@H]([C@H](C)CC(=O)O)C(=O)N[C@@H](CC(=O)c2ccccc2N)C(=O)O[C@@H]1C [Daptomycin, reference compound] | – | –
– | > 25 | – | > 25 | – | – | N=C1N[C@@H](Cc2ccccc2)CN1CC(=O)Nc1cccc(NC(=O)CN2C[C@H](Cc3ccccc3)NC2=N)c1 [Compound 2] | – | –
– | > 25 | – | 1.5 | – | – | CCCCCCCCN1C(=N)N(CC(=O)Nc2cccc(NC(=O)CN3C[C@H](Cc4ccccc4)N(CCCCCCCC)C3=N)c2)C[C@@H]1Cc1ccccc1 [Compound 18] | – | antibacterial activity against the tested bacteria (in words) [7]: decreased activity
– | > 25 | – | 3 | – | – | N=C1N(CC(=O)Nc2cccc(NC(=O)CN3C[C@H](Cc4ccccc4)N(CCC45CC6CC(CC(C6)C4)C5)C3=N)c2)C[C@H](Cc2ccccc2)N1CCC12CC3CC(CC(C3)C1)C2 [Compound 22] | – | –
– | > 25 | – | > 25 | – | – | N=C1N[C@@H](Cc2ccccc2)CN1CC(=O)NCCCCNC(=O)CN1C[C@H](Cc2ccccc2)NC1=N [Compound 1] | – | –
